Results from the NIST ThermoML archive (doi:10.1021/acs.jced.6b00350).
Values joined by “and” are separate entries in the source; they are usually repeats but may differ in a detail not shown here. Equal entries are not always repeated.

Conditions: Liquid, Hot wire method

FC(F)CC(F)(F)F [1,1,1,3,3-pentafluoropropane]
Conditions	thermal conductivity
262.46 K, 31214 kPa	0.1107 W/m/K
262.47 K, 25250 kPa	0.1091 W/m/K
262.47 K, 31210 kPa	0.1107 W/m/K
262.48 K, 8852 kPa	0.1036 W/m/K
262.48 K, 14086 kPa	0.1051 W/m/K
262.48 K, 14126 kPa	0.1053 W/m/K
262.49 K, 4309 kPa	0.1016 W/m/K
262.49 K, 4315 kPa	0.1017 W/m/K
262.5 K, 19581 kPa	0.1068 W/m/K
262.51 K, 19565 kPa	0.1063 W/m/K
262.54 K, 274 kPa	0.09981 W/m/K
262.55 K, 264 kPa	0.09976 W/m/K
262.84 K, 36891 kPa	0.1121 W/m/K
262.84 K, 36917 kPa	0.112 W/m/K
262.84 K, 43922 kPa	0.1137 W/m/K
262.85 K, 43951 kPa	0.1138 W/m/K
262.85 K, 51258 kPa	0.1158 W/m/K
262.86 K, 51253 kPa	0.1158 W/m/K
262.86 K, 58802 kPa	0.1175 W/m/K
262.87 K, 58823 kPa	0.1177 W/m/K
262.87 K, 68778 kPa	0.12 W/m/K
262.87 K, 68811 kPa	0.1201 W/m/K
262.89 K, 68892 kPa	0.1203 W/m/K
262.9 K, 68869 kPa	0.1204 W/m/K
262.97 K, 25291 kPa	0.1088 W/m/K
262.97 K, 31137 kPa	0.1104 W/m/K
262.97 K, 31171 kPa	0.1105 W/m/K
262.98 K, 25286 kPa	0.1085 W/m/K
263 K, 8795 kPa	0.1032 W/m/K
263 K, 14094 kPa	0.105 W/m/K
263 K, 14117 kPa	0.1048 W/m/K
263.01 K, 8802 kPa	0.1032 W/m/K
263.01 K, 19580 kPa	0.1068 W/m/K
263.01 K, 19587 kPa	0.1069 W/m/K
263.02 K, 4283 kPa	0.1017 W/m/K
263.04 K, 4280 kPa	0.1019 W/m/K
263.09 K, 251 kPa	0.09992 W/m/K
263.09 K, 258 kPa	0.1003 W/m/K
263.37 K, 43936 kPa	0.1139 W/m/K
263.37 K, 51250 kPa	0.1158 W/m/K
263.37 K, 68817 kPa	0.1201 W/m/K
263.38 K, 43899 kPa	0.1139 W/m/K
263.38 K, 51246 kPa	0.1158 W/m/K
263.38 K, 58767 kPa	0.1179 W/m/K
263.38 K, 58789 kPa	0.1175 W/m/K
263.38 K, 68795 kPa	0.12 W/m/K
263.39 K, 68867 kPa	0.1202 W/m/K
263.39 K, 68877 kPa	0.1202 W/m/K
281.24 K, 123 kPa	0.09294 W/m/K
281.26 K, 5085 kPa	0.09534 W/m/K
281.26 K, 10502 kPa	0.09742 W/m/K
281.26 K, 16109 kPa	0.09972 W/m/K
281.27 K, 5081 kPa	0.09537 W/m/K
281.27 K, 10497 kPa	0.09773 W/m/K
281.27 K, 16120 kPa	0.09962 W/m/K
281.27 K, 36450 kPa	0.1067 W/m/K
281.28 K, 29163 kPa	0.1037 W/m/K and 0.1042 W/m/K
281.28 K, 36455 kPa	0.1069 W/m/K
281.29 K, 22340 kPa	0.1017 W/m/K and 0.1016 W/m/K
281.31 K, 44258 kPa	0.1094 W/m/K
281.32 K, 44270 kPa	0.1086 W/m/K
281.36 K, 52956 kPa	0.1121 W/m/K
281.37 K, 61439 kPa	0.1132 W/m/K
281.37 K, 61447 kPa	0.1138 W/m/K
281.39 K, 68582 kPa	0.1153 W/m/K
281.4 K, 68575 kPa	0.1156 W/m/K
281.68 K, 36448 kPa	0.1069 W/m/K
281.69 K, 123 kPa	0.09324 W/m/K
281.69 K, 16102 kPa	0.09989 W/m/K
281.69 K, 16110 kPa	0.0999 W/m/K
281.69 K, 36460 kPa	0.1069 W/m/K
281.7 K, 123 kPa	0.09319 W/m/K
281.7 K, 10499 kPa	0.09772 W/m/K
281.7 K, 29156 kPa	0.1046 W/m/K
281.71 K, 10506 kPa	0.09793 W/m/K
281.71 K, 29164 kPa	0.1045 W/m/K
281.71 K, 44250 kPa	0.109 W/m/K
281.72 K, 5099 kPa	0.09526 W/m/K
281.72 K, 22328 kPa	0.1023 W/m/K
281.72 K, 22339 kPa	0.1018 W/m/K
281.72 K, 44261 kPa	0.1096 W/m/K
281.73 K, 5092 kPa	0.09542 W/m/K
281.74 K, 52967 kPa	0.1113 W/m/K
281.74 K, 61451 kPa	0.1132 W/m/K
281.75 K, 52979 kPa	0.1116 W/m/K
281.75 K, 61458 kPa	0.1139 W/m/K
281.78 K, 68577 kPa	0.1148 W/m/K
281.78 K, 68579 kPa	0.1154 W/m/K
282.14 K, 36443 kPa	0.1066 W/m/K
282.14 K, 36448 kPa	0.1061 W/m/K
282.16 K, 44239 kPa	0.109 W/m/K
282.16 K, 44256 kPa	0.1087 W/m/K
282.17 K, 29157 kPa	0.1038 W/m/K
282.17 K, 29166 kPa	0.1045 W/m/K
282.18 K, 16109 kPa	0.09967 W/m/K
282.18 K, 52974 kPa	0.1114 W/m/K
282.18 K, 61442 kPa	0.114 W/m/K
282.18 K, 61445 kPa	0.1137 W/m/K
282.19 K, 16097 kPa	0.09999 W/m/K
282.19 K, 52971 kPa	0.1111 W/m/K
282.2 K, 10491 kPa	0.09788 W/m/K
282.2 K, 22326 kPa	0.1018 W/m/K
282.2 K, 22330 kPa	0.1022 W/m/K
282.21 K, 122 kPa	0.09344 W/m/K
282.21 K, 123 kPa	0.09288 W/m/K
282.21 K, 10493 kPa	0.0975 W/m/K
282.21 K, 68577 kPa	0.1158 W/m/K
282.22 K, 5074 kPa	0.09546 W/m/K
282.22 K, 68599 kPa	0.1157 W/m/K
282.23 K, 5088 kPa	0.0957 W/m/K
282.64 K, 61432 kPa	0.1136 W/m/K
282.65 K, 36437 kPa	0.1064 W/m/K
282.65 K, 44235 kPa	0.109 W/m/K
282.65 K, 61439 kPa	0.1136 W/m/K
282.66 K, 44247 kPa	0.1092 W/m/K
282.67 K, 52971 kPa	0.1109 W/m/K
282.67 K, 52972 kPa	0.1115 W/m/K
282.68 K, 29156 kPa	0.104 W/m/K
282.68 K, 29162 kPa	0.104 W/m/K
282.68 K, 68589 kPa	0.1157 W/m/K
282.69 K, 68577 kPa	0.1155 W/m/K
282.71 K, 16110 kPa	0.09975 W/m/K and 0.09954 W/m/K
282.72 K, 22340 kPa	0.1019 W/m/K
282.73 K, 22342 kPa	0.1021 W/m/K
282.74 K, 10500 kPa	0.09762 W/m/K
282.77 K, 5087 kPa	0.09576 W/m/K
282.78 K, 123 kPa	0.09344 W/m/K and 0.09326 W/m/K
282.78 K, 5079 kPa	0.0959 W/m/K
283.17 K, 61441 kPa	0.1135 W/m/K
283.17 K, 61445 kPa	0.1138 W/m/K
283.19 K, 68547 kPa	0.1156 W/m/K
283.19 K, 68582 kPa	0.1158 W/m/K
283.2 K, 36442 kPa	0.1068 W/m/K
283.2 K, 36446 kPa	0.1068 W/m/K
283.2 K, 44231 kPa	0.109 W/m/K
283.2 K, 44239 kPa	0.1089 W/m/K
283.2 K, 52973 kPa	0.1113 W/m/K
283.21 K, 52984 kPa	0.1112 W/m/K
